Consider 1 substance from PMC3425544, “The S100A10 Subunit of the Annexin A2 Heterotetramer Facilitates L2-Mediated Human Papillomavirus Infection” (PLoS ONE, 2012).

In one test the test system is S100A10 subunit of A2t. The test is described as follows: EPR binding of L2 peptide to S100A10. On the procedure: (§1) Recombinant annexin A2 was expressed in BL21(DE3) Escherichia coli cells and purified using reversible Ca^2+-dependent binding to negatively charged phospholipid vesicles followed by size exclusion chromatography. A pET23A vector containing the S100A10 sequence (a gift from Volker Gerke) was expressed in BL21(DE3) cells as previously described. Both proteins were stored at 4°C in 20 mM HEPES buffer at pH 7.4, containing 100 mM NaCl with the addition of 1 mM dithiothreitol. Concentrations of all proteins and peptides, including the A2t complex, were determined using bicinchoninic acid assays (Pierce Thermo Scientific, Rockford, IL) compared to measured absorbance of albumin standards at 562 nm. Purified annexin A2 and S100A10 were combined at a molar ratio of 1∶1 and concentrated to over 8 µg/µl. The mixture was incubated overnight at 4°C, and then loaded onto a superdex 200 10/300 GL (GE Healthcare USA) column equilibrated in the previously mentioned HEPES buffer. The eluted A2t peak was collected and subjected to peptide binding assays.
(§2) The L2_108–126 peptides used in our EPR studies were synthesized with a cysteine at the N-terminus, and followed by a spacer of 3 physiological amino acids (C-IVS) preceding the canonical L2_108–126 and L2 scrambled sequences (C-IVS-[…] and C-IVS-[…] respectively). Peptides were combined with 8× molar excess paramagnetic label (1-oxyl-2, 2, 5, 5-tetramethyl-Δ3-pyrroline-3-methyl) (R1) methanethiosulfonate (MTSL), (Toronto Research Chemicals, Canada) and left to react overnight at 4°C. Free label was removed by gel filtration (PD10 GE, United Kingdom). All peptides were solubilized into HEPES buffer. For competition assays, the scrambled peptide was non-paramagnetic labeled with an N-acetylated MTSL paramagnetic-label analog (1-acetyl-2,2,5,5- tetramethyl-Δ3-pyrroline-3-methyl) (R1′) at an 8× molar excess to emulate the paramagnetic label on control peptides. Binding interactions were examined by combining paramagnetically-labeled L2 peptide with A2t, BSA, ANXA2, or S100A10 (20 µM, 100 µM, 100 µM, 100 µM, and 100 µM respectively) in 10 µL volumes of the HEPES buffer, confined by glass capillaries, and measured at room temperature over a period of 24 hours using a Bruker EMX X-band EPR spectrometer. For the cysteine blocked S100A10, S100A10 was treated with R1′ and excess label was removed via gel filtration (see above) before the addition of paramagnetic labeled peptides. The experiments were done in triplicate with measurements taken at 12 db, in 5 scan intervals. All spectra were normalized to the same number of scans. To quantify the amount of bound peptide spectra of all tested proteins in combination with the L2_108–126 or ScrL2 peptides were compared to the spectra of L2_108–126 or ScrL2 peptides alone in solution using a spectra analyzing software (EPR 130, University of California, Los Angeles). By subtracting the alone peptide spectra from that of the combined samples we derive the spectra of the bound spectra, and based on double integration, relate this spectra to a concentration of the peptide that bound to the target protein.

The test system of the next test is annexin A2. The test is described as follows: EPR binding of L2 peptide to annexin A2. On the procedure: as §1
as §2, with “The experiments were done in triplicate with measurements taken at 12 db, in 5 scan intervals. All spectra were normalized to the same number of scans.” left out, “By subtracting the alone peptide spectra from that of the combined samples we derive the spectra of the bound spectra, and based on double integration, relate this spectra to a concentration of the peptide that bound to the target protein.” left out

As to “C-IVS-LVEETSFIDAGAPTSVPSI [L2_108–126, HPV16 L2 aa 108–126 peptide with N-terminal cysteine and IVS spacer]”, the “interaction with S100A10 subunit” value with S100A10 subunit of A2t (EPR, discussion) is recorded as “very strong interaction”. Besides, the “relative % bound to S100A10” value in the test with S100A10 subunit of A2t (EPR, 20 µM peptide, 100 µM S100A10, mean of three separate experiments) was determined as 92.5%. Also, the “relative % bound to cysteine-blocked S100A10” value in the test on S100A10 subunit of A2t (EPR, S100A10 cysteine-blocked with R1′ (αCys-S100A10), paramagnetic-labeled peptide, mean of three separate experiments) came to 73.1%. For the same substance, in the test on S100A10 subunit of A2t (EPR, scrambled peptide 5∶1, mean of three separate experiments), the “relative % bound to S100A10 in presence of ScrL2” value came to 91.0%. Further, the “relative binding constant (K), S100A10” value in the test on S100A10 subunit of A2t (from EPR percent bound, association constant) worked out at 150000 M⁻¹. Besides, in the test with annexin A2 (20 µM peptide, 100 µM ANXA2, mean of three separate experiments), the “relative % bound to annexin A2” value stood at 23.6%. Further, the “interaction with annexin A2 subunit” value with annexin A2 (discussion) is listed as “minimal interaction”. The “relative % bound to annexin A2 in presence of ScrL2” value with annexin A2 (scrambled peptide 5∶1, mean of three separate experiments) turned out to be 17.7%.
